Some test systems named below: DLD-1 colon; DMS 114 small cell lung; DMS 273 small cell lung; HOP-18 NSCLC; KM20L2 colon; LXFL 529 NSCLC; M19-MEL melanoma; RXF-631 renal; XF 498 CNS.
Common to all, as to assay: growth of human tumour cells (NCI), 48 h

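Test compounds were applied to cells in 96-well plates for 48 hours at 5 doses. At the TGI there is no net growth.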 Bounds are passed on as bounds.

This passage reports TGI results from PubChem BioAssay (NCI).

Take `COC(=O)C(CCC1(C)OCCO1)C(C)=O` (stereo unspecified): the TGI with DLD-1 colon, with DMS 114 small cell lung, in the assay with DMS 273 small cell lung, in the assay with HOP-18 NSCLC, in the assay on KM20L2 colon and in the assay on LXFL 529 NSCLC was more than 100 µM each time. For the same compound, the TGI in the assay with M19-MEL melanoma, with RXF-631 renal and in the assay with XF 498 CNS was more than 100 µM each time.

For the compound `N#Cc1ccc(Nc2cnc3cc(N)ccc3n2)cc1`, the TGI in the assay with DLD-1 colon, in the assay with DMS 114 small cell lung, in the assay on DMS 273 small cell lung, in the assay with KM20L2 colon, in the assay on LXFL 529 NSCLC and with M19-MEL melanoma was more than 100 µM in each case. Besides, in the assay with XF 498 CNS, the TGI is more than 100 µM.

For the compound `COC1=C(C)C(=O)C2C(C1=O)C(c1ccc(OC)c(OC)c1)[C@H]2C` (stereo partly specified), the TGI with DLD-1 colon, with DMS 273 small cell lung, in the assay with LXFL 529 NSCLC, in the assay with M19-MEL melanoma, with RXF-631 renal and with XF 498 CNS was more than 100 µM in each case.

As to `COc1ccc(Cc2cc(OC)c(OC)c(OC)c2)cc1O`, the TGI is more than 100 µM with DLD-1 colon; 0.137 µM in the assay with DMS 114 small cell lung; more than 100 µM in the assay on DMS 273 small cell lung; more than 31.6 µM in the assay on HOP-18 NSCLC; more than 100 µM with KM20L2 colon; more than 100 µM in the assay on LXFL 529 NSCLC. Further, the TGI in the assay with M19-MEL melanoma, with RXF-631 renal and with XF 498 CNS was more than 100 µM throughout.

In the case of `Cn1c(=O)c2c(ncn2CCCCn2ccnc2[N+](=O)[O-])n(C)c1=O`, the TGI with DMS 114 small cell lung, in the assay with DMS 273 small cell lung, with KM20L2 colon, with LXFL 529 NSCLC, with M19-MEL melanoma and in the assay with XF 498 CNS was more than 100 µM each time.

With `Cc1ccc(/C=C/C(=O)c2sc(C(N)=S)nc2C)cc1`, the TGI in the assay on DLD-1 colon, in the assay with DMS 273 small cell lung, with HOP-18 NSCLC, in the assay on KM20L2 colon and with M19-MEL melanoma was more than 100 µM in each case.

With `COc1ccc(C2Cc3cc(OC)c(OC)c(OC)c3C2=O)cc1` (stereo unspecified), the TGI in the assay on DLD-1 colon, with DMS 114 small cell lung, in the assay with DMS 273 small cell lung, with HOP-18 NSCLC, in the assay on KM20L2 colon and with M19-MEL melanoma was more than 100 µM in each case.

As for `CC(C)Cc1ccc(C(C)/C=C2\CCC(CN3CCOCC3)C2=O)cc1` (stereo unspecified), the TGI in the assay on DLD-1 colon was 9.36 µM; with DMS 114 small cell lung it was 42.4 µM; in the assay with HOP-18 NSCLC, 19.2 µM; with KM20L2 colon it was 31.5 µM; in the assay on LXFL 529 NSCLC, 4.09 µM; in the assay with M19-MEL melanoma, 28.8 µM. For the same compound, the TGI with RXF-631 renal turned out to be 41.2 µM; with XF 498 CNS, 30 µM.

Regarding `O=S1(=O)COc2ccccc2-c2ncncc21`, the TGI in the assay with DLD-1 colon, in the assay with DMS 114 small cell lung, in the assay with HOP-18 NSCLC, with KM20L2 colon, with LXFL 529 NSCLC and in the assay with M19-MEL melanoma was more than 100 µM in each case. Further, the TGI in the assay with RXF-631 renal is more than 100 µM.

Turning to `O=C(CC(=O)C(=O)CC(=O)OCc1ccccc1)OCc1ccccc1`, the TGI with DLD-1 colon, with DMS 114 small cell lung, in the assay with KM20L2 colon, in the assay with LXFL 529 NSCLC and in the assay with M19-MEL melanoma was more than 100 µM each time.

On to `COc1ccc(NC(=O)CSc2nnc(Cc3ccccc3)o2)cc1`, for which the TGI in the assay with DLD-1 colon, in the assay with DMS 114 small cell lung, in the assay on DMS 273 small cell lung, in the assay on HOP-18 NSCLC, with KM20L2 colon and in the assay with LXFL 529 NSCLC was more than 100 µM each time. This compound also displayed a TGI with M19-MEL melanoma of more than 100 µM.

`CC(=O)N(/N=C\c1ccc([N+](=O)[O-])cc1)c1ccccc1`: the TGI in the assay on DLD-1 colon, in the assay on DMS 114 small cell lung, with DMS 273 small cell lung, in the assay with HOP-18 NSCLC, with KM20L2 colon and in the assay on M19-MEL melanoma was more than 100 µM throughout. Besides, the TGI in the assay on RXF-631 renal and with XF 498 CNS was more than 100 µM each time.

As for `CSc1nc2nc(C)c(C)nc2c(=O)[nH]1`, the TGI in the assay with DLD-1 colon, with DMS 114 small cell lung, with DMS 273 small cell lung, in the assay with HOP-18 NSCLC, with KM20L2 colon and in the assay with LXFL 529 NSCLC was more than 100 µM each time. The TGI with M19-MEL melanoma and in the assay with XF 498 CNS was more than 100 µM throughout.

On to `CCOC(=O)[C@H](Cc1ccccc1)NC(=O)c1nc[nH]c1[N+](=O)[O-]`, for which the TGI in the assay with DLD-1 colon, in the assay with DMS 114 small cell lung, in the assay with DMS 273 small cell lung, with LXFL 529 NSCLC and with M19-MEL melanoma was more than 100 µM each time.

Consider `Cc1cc(=O)cc2sc3cc(Cl)ccc3nc1-2`, for which the TGI was more than 100 µM in the assay with DLD-1 colon; 24.6 µM with DMS 273 small cell lung; more than 100 µM in the assay on HOP-18 NSCLC; 30.1 µM in the assay with KM20L2 colon; more than 100 µM in the assay with LXFL 529 NSCLC; 31.2 µM in the assay with M19-MEL melanoma. Moreover, the TGI in the assay with XF 498 CNS amounted to 31.3 µM.

Take `O=C1CCCCC1C1(O)C(=O)Nc2cc(F)ccc21` (stereo unspecified): the TGI in the assay on DLD-1 colon, in the assay with DMS 114 small cell lung, in the assay with DMS 273 small cell lung, in the assay on HOP-18 NSCLC, with KM20L2 colon and in the assay on LXFL 529 NSCLC was more than 100 µM in each case. In addition, the TGI with M19-MEL melanoma and in the assay on XF 498 CNS was more than 100 µM each time.
